Test results from article PMC11071649, “Synthesis and Selective Anticancer Activity Evaluation of 2-phenylacrylonitrile Derivatives as Tubulin Inhibitors” (Current Medicinal Chemistry, 2024).

Assays:
Format in all cases: cell-based, human
A549 lung cancer cell = assay: MTT anti-proliferative assay, A549; conditions: for IC50: MTT, 48 h
Method in brief: (§1)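 Cell lines plated in 96-well plates and exposed to compounds; anti-proliferative activity determined by MTT read-out as inhibition of net cell growth.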

AGS gastric cancer cell = assay: MTT anti-proliferative assay, AGS; conditions: for IC50: MTT, 48 h
Method in brief: as §1

[1] = tested on: BEL-7402 liver cancer cell; assay: MTT anti-proliferative assay, BEL-7402; conditions: for IC50: MTT, 48 h
Method in brief: as §1

[2] = tested on: HCT116 colectal cancer cell; assay: MTT anti-proliferative assay, HCT116; conditions: for IC50: MTT, 48 h, read-out: IC50 HCT-116
Method in brief: as §1

[3] = tested on: HeLa cervical cancer cell; assay: MTT anti-proliferative assay, HeLa; conditions: MTT, 48 h
Method in brief: as §1

HepG2 hepatoma cell = assay: MTT anti-proliferative assay, HepG2; conditions: MTT, 48 h; read-out: IC50 HepG-2
Method in brief: as §1

L-02 normal liver cell = assay: MTT assay, L-02 normal cells; conditions: 48 h
Method in brief: as §1

[4] = tested on: MGC-803 late stage differentiation gastric cancer cell; assay: MTT anti-proliferative assay, MGC-803; conditions: for IC50: MTT, 48 h
Method in brief: as §1

MCF-7 breast cancer cell = assay: MTT anti-proliferative assay, MCF-7; conditions: for IC50: MTT, 48 h
Method in brief: as §1

[5] = tested on: MCF-10A normal breast cell; assay: MTT assay, MCF-10A normal cells; conditions: 48 h
Method in brief: as §1

[6] = tested on: Raji B lymphoblastoid cell; assay: MTT anti-proliferative assay, Raji; conditions: for IC50: MTT, 48 h, read-out: IC50 Raji
Method in brief: as §1

[7] = tested on: SGC-7901 early differentiation gastric cancer cell; assay: MTT anti-proliferative assay, SGC-7901; conditions: for IC50: MTT, 48 h
Method in brief: as §1

[8] = tested on: diffuse large B-cell lymphoma SU-DHL-10 cell; assay: MTT anti-proliferative assay, SU-DHL-10; conditions: for IC50: MTT, 48 h, read-out: IC50 SU-DHL-10
Method in brief: as §1

| Compound | IC50 (A549 lung cancer cell) [µM] | IC50 (AGS gastric cancer cell) [µM] | IC50 [1] [µM] | IC50 [2] [µM] | IC50 [3] [µM] | IC50 (HepG2 hepatoma cell) [µM] | IC50 (L-02 normal liver cell) [µM] | IC50 [4] [µM] | IC50 (MCF-7 breast cancer cell) [µM] | IC50 [5] [µM] | IC50 [6] [µM] | IC50 [7] [µM] | IC50 [8] [µM] | SI (selectivity index), IC50 (L-02)/IC50 (AGS) (AGS gastric cancer cell) | other results |
| --- | --- | --- | --- | --- | --- | --- | --- | --- | --- | --- | --- | --- | --- | --- | --- |
| CCCCCOc1ccc(/C=C(\C#N)c2ccc(OC(F)(F)F)cc2)cc1 [Compound 1a2o] | > 100 | > 100 | > 100 | > 100 | > 100 | > 100 | > 100 | > 100 | > 100 | > 100 | > 100 | > 100 | > 100 |  |  |
| N#C/C(=C\c1ccccc1Br)c1ccc(C(F)(F)F)cc1 [Compound 1f2i] | > 100 | 42 ± 11.7 | > 100 | > 100 | > 100 | > 100 | > 100 | > 100 | > 100 | > 100 | > 100 | > 100 | > 100 | > 2.3 |  |
| CCN(CC)c1ccc(/C=C(\C#N)c2cc(OC)c(OC)c(OC)c2)cc1 [Compound 1g2b] | > 100 | 7.5 ± 0.4 | 0.03 ± 0.01 | 1 ± 0.1 | > 100 | > 100 | > 100 | 0.12 ± 0.03 | 0.45 ± 0.06 | 0.05 ± 0.001 | 0.37 ± 0.06 | > 100 | 2.4 ± 0.1 | > 13.1 | SI (selectivity index), IC50 (L-02)/IC50 (BEL-7402) [1]: > 3333; SI (selectivity index), IC50 (L-02)/IC50 (HCT-116) [2]: > 96.1; SI (selectivity index), IC50 (L-02)/IC50 (MGC-803) [4]: > 819; SI (selectivity index), IC50 (L-02)/IC50 (Raji) [6]: > 270; SI (selectivity index), IC50 (L-02)/IC50 (SU-DHL-10) [8]: > 34.0 |
| CCc1ccc(/C=C(\C#N)c2ccc(OC(F)(F)F)cc2)cc1 [Compound 1a2f] | > 100 | 14.6 ± 5.9 | > 100 | 43.5 ± 3.8 | > 100 | > 100 | > 100 | 56.7 ± 11 | 59.9 ± 2.3 | > 100 | 42.7 ± 3.4 | 77.9 ± 12.6 | 15.1 ± 11.6 | > 6.8 | SI (selectivity index), IC50 (L-02)/IC50 (HCT-116) [2]: > 2.2; SI (selectivity index), IC50 (L-02)/IC50 (MGC-803) [4]: > 1.7; SI (selectivity index), IC50 (MCF-10A)/IC50 (MCF-7) (MCF-7 breast cancer cell): > 1.6; SI (selectivity index), IC50 (L-02)/IC50 (Raji) [6]: > 2.3; SI (selectivity index), IC50 (L-02)/IC50 (SGC-7901) [7]: > 1.2; SI (selectivity index), IC50 (L-02)/IC50 (SU-DHL-10) [8]: > 6.6 |
| N#C/C(=C\c1ccccc1F)c1ccc(C(F)(F)F)cc1 [Compound 1f2g] | > 100 | > 100 | > 100 | > 100 | > 100 | > 100 | > 100 | > 100 | > 100 | > 100 | > 100 | > 100 | > 100 |  |  |
| N#C/C(=C\c1ccc(C(F)(F)F)cc1)c1ccc(C(F)(F)F)cc1 [Compound 1f2k] | 47.8 ± 4 | 53.2 ± 13.2 | > 100 | > 100 | > 100 | > 100 | > 100 | > 100 | > 100 | > 100 | 77.4 ± 13.6 | > 100 | > 100 | > 1.8 | SI (selectivity index), IC50 (L-02)/IC50 (A549) (A549 lung cancer cell): > 2.0 |
| CCc1ccc(/C=C(\C#N)c2ccc(C(F)(F)F)cc2)cc1 [Compound 1f2p] | > 100 | > 100 | > 100 | > 100 | > 100 | > 100 | > 100 | > 100 | > 100 | > 100 | > 100 | > 100 | > 100 |  |  |
